From ChEMBL document CHEMBL1649173, “Single-dose escalation and multiple-dose safety, tolerability, and pharmacokinetics of IDX899, a candidate human immunodeficiency virus type 1 nonnucleoside reverse transcriptase inhibitor, in healthy subjects” (Antimicrob Agents Chemother, 2009)

How the values were obtained:
[1] = Plasma concentration in fed state healthy human at 400 mg, po administered as single dose after 24 hrs; format: ADME, organism-based
[2] = Apparent total plasma clearance in fed state healthy human at 200 mg, po administered as single dose; format: ADME, organism-based
[3] = AUC (0 to infinity) in fed state healthy human at 400 mg, po administered as single dose; format: ADME, organism-based; set-up: dose 400 mg, route oral, time infinity; conditions: plasma
[4] = Apparent total volume of distribution in fed state healthy human at 400 mg, po administered as single dose; format: ADME, organism-based; conditions: in vivo, read-out: Vz/F
Homo sapiens [5] = experiment: Toxicity in healthy human assessed as occurrence of abnormal dreams at 50 to 1200 mg, po administered as single dose; format: organism-based; conditions: in vivo
[6] = Half life in fasted state healthy human at 50 mg, po administered as single dose; format: ADME, organism-based; conditions: in vivo
[7] = AUC (0 to infinity) in fasted state healthy human at 400 mg, po administered as single dose; format: ADME, organism-based; set-up: dose 400 mg, time infinity, route oral; conditions: plasma
[8] = Plasma concentration in fed state healthy human at 200 mg, po administered as single dose after 24 hrs; format: ADME, organism-based
[9] = Tmax in fed state healthy human at 400 mg, po administered as single dose; format: ADME, organism-based; conditions: in vivo
[10] = Plasma concentration in fed state healthy human at 1200 mg, po administered as single dose after 24 hrs; format: ADME, organism-based
[11] = Half life in fasted state healthy human at 100 mg, po administered as single dose; format: ADME, organism-based; conditions: in vivo
[12] = AUC (0 to infinity) in fed state healthy human at 200 mg, po administered as single dose; format: ADME, organism-based; set-up: dose 200 mg, route oral, time infinity; conditions: plasma
[13] = Apparent total volume of distribution in healthy human at 800 mg, po qd after 1 day; format: ADME, organism-based; conditions: in vivo, read-out: Vz/F
[14] = Half life in fasted state healthy human at 200 mg, po administered as single dose; format: ADME, organism-based; conditions: in vivo
[15] = Apparent total plasma clearance in healthy human at 800 mg, po qd after 7 days; format: ADME, organism-based
[16] = Cmax in fed state healthy human at 1200 mg, po administered as single dose; format: ADME, organism-based; set-up: dose 1200 mg, route oral; conditions: in vivo
[17] = Apparent total plasma clearance in fed state healthy human at 800 mg, po administered as single dose; format: ADME, organism-based
[18] = Cmax in fasted state healthy human at 200 mg, po administered as single dose; format: ADME, organism-based; set-up: dose 200 mg, route oral; conditions: in vivo
[19] = Plasma concentration in fasted state healthy human at 100 mg, po administered as single dose after 24 hrs; format: ADME, organism-based
[20] = Tmax in healthy human at 400 mg, po bid after 1 day; format: ADME, organism-based; conditions: in vivo
Homo sapiens [21] = species on record: Homo sapiens; experiment: Protein binding in human; format: ADME, organism-based; conditions: in vivo
Homo sapiens [22] = experiment: Toxicity in healthy human assessed as incidence of adverse events at 400 mg, po bid and 800 mg, po qd for 7 days; format: organism-based; conditions: in vivo, 168 h
Homo sapiens [23] = experiment: Toxicity in healthy human assessed as incidence of adverse events at 50 to 1200 mg, po administered as single dose; format: organism-based; conditions: in vivo
[24] = Cmax in fasted state healthy human at 400 mg, po administered as single dose; format: ADME, organism-based; set-up: dose 400 mg, route oral; conditions: in vivo
[25] = Cmax in healthy human at 800 mg, po qd after 1 day; format: ADME, organism-based; set-up: dose 800 mg, route oral; conditions: in vivo
[26] = AUC (0 to infinity) in healthy human at 400 mg, po bid after 7 days; format: ADME, organism-based; set-up: dose 400 mg, route oral, time infinity; conditions: plasma
[27] = Trough plasma concentration in healthy human at 800 mg, po qd after 1 day; format: ADME, organism-based; conditions: read-out: Cmin
[28] = Cmax in fasted state healthy human at 100 mg, po administered as single dose; format: ADME, organism-based; set-up: dose 100 mg, route oral; conditions: in vivo
[29] = Cmax in fed state healthy human at 400 mg, po administered as single dose; format: ADME, organism-based; set-up: dose 400 mg, route oral; conditions: in vivo
[30] = Cmax in healthy human at 400 mg, po bid after 1 day; format: ADME, organism-based; set-up: dose 400 mg, route oral; conditions: in vivo
Homo sapiens [31] = experiment: Toxicity in healthy human assessed as occurrence of head ache at 50 to 1200 mg, po administered as single dose; format: organism-based; conditions: in vivo
[32] = Apparent total volume of distribution in fasted state healthy human at 100 mg, po administered as single dose; format: ADME, organism-based; conditions: in vivo, read-out: Vz/F
[33] = Half life in fed state healthy human at 1200 mg, po administered as single dose; format: ADME, organism-based; conditions: in vivo
[34] = tested on: Human immunodeficiency virus 1; experiment: Antiviral activity against HIV1; format: functional, organism-based
[35] = Plasma concentration in fed state healthy human at 800 mg, po administered as single dose after 24 hrs; format: ADME, organism-based
[36] = Cmax in fasted state healthy human at 50 mg, po administered as single dose; format: ADME, organism-based; set-up: dose 50 mg, route oral; conditions: in vivo
[37] = AUC (0 to infinity) in healthy human at 800 mg, po qd after 1 day; format: ADME, organism-based; set-up: dose 800 mg, time infinity, route oral; conditions: plasma
[38] = Apparent total plasma clearance in fasted state healthy human at 50 mg, po administered as single dose; format: ADME, organism-based
[39] = Tmax in fed state healthy human at 200 mg, po administered as single dose; format: ADME, organism-based; conditions: in vivo
[40] = AUC (0 to infinity) in fed state healthy human at 1200 mg, po administered as single dose; format: ADME, organism-based; set-up: dose 1200 mg, route oral, time infinity; conditions: plasma
[41] = Apparent total volume of distribution in healthy human at 800 mg, po qd after 7 days; format: ADME, organism-based; conditions: in vivo, read-out: Vz/F
[42] = Cmax in healthy human at 800 mg, po qd after 7 days; format: ADME, organism-based; set-up: dose 800 mg, route oral; conditions: in vivo
Homo sapiens [43] = experiment: Toxicity in healthy human assessed as occurrence of dizziness at 50 to 1200 mg, po administered as single dose; format: organism-based; conditions: in vivo
[44] = Apparent total plasma clearance in fasted state healthy human at 200 mg, po administered as single dose; format: ADME, organism-based
[45] = Half life in healthy human at 800 mg, po qd after 1 day; format: ADME, organism-based; conditions: in vivo
[46] = Apparent total volume of distribution in fed state healthy human at 800 mg, po administered as single dose; format: ADME, organism-based; conditions: in vivo, read-out: Vz/F
[47] = AUC (0 to infinity) in fed state female healthy human at 400 mg, po administered as single dose; format: ADME, organism-based; set-up: dose 400 mg, time infinity, route oral; conditions: plasma
[48] = Apparent total plasma clearance in fasted state healthy human at 400 mg, po administered as single dose; format: ADME, organism-based
[49] = Trough plasma concentration in healthy human at 800 mg, po qd after 7 days; format: ADME, organism-based; conditions: read-out: Cmin
[50] = Trough plasma concentration in healthy human at 400 mg, po bid after 7 days; format: ADME, organism-based; conditions: read-out: Cmin
[51] = Half life in fasted state healthy human at 400 mg, po administered as single dose; format: ADME, organism-based; conditions: in vivo

Work on `COP(=O)(c1cc(C)cc(/C=C/C#N)c1)c1c(C(N)=O)[nH]c2ccc(Cl)cc12` (stereo unspecified) yielded a concentration at 24 h [1] of 360 ng/mL, a CL/F [2] of 230 mL/min and an AUC(0-inf) [3] of 36000 ng·h/mL. The Vd/F [4] was 166 L, the Activity (Homo sapiens [5]) was 2% and the half-life [6] was 6.2 h. It also gave an AUC(0-inf) [7] of 14700 ng·h/mL, a concentration at 24 h [8] of 190 ng/mL and a Tmax [9] of 7 h. The concentration at 24 h [10] was 2020 ng/mL, the half-life [11] was 6.8 h and the AUC(0-inf) [12] was 16800 ng·h/mL. For the same molecule, the Vd/F [13] was 151 L, the half-life [14] was 11.9 h and the CL/F [15] was 292 mL/min. The Cmax [16] was 5600 ng/mL, the CL/F [17] was 297 mL/min and the Cmax [18] was 700 ng/mL. The concentration at 24 h [19] was 90 ng/mL, the Tmax [20] was 4 h and the Activity (Homo sapiens [21]) was > 99.8%. The Activity (Homo sapiens [22]) was 43.8%, the Activity (Homo sapiens [23]) was 22.4% and the Cmax [24] was 1100 ng/mL. The Cmax [25] was 4900 ng/mL, the AUC(0-inf) [26] was 35200 ng·h/mL and the concentration at 24 h [27] was 900 ng/mL. It also gave a Cmax [28] of 3000 ng/mL, a Cmax [29] of 2400 ng/mL and a Cmax [30] of 2000 ng/mL. It also gave an Activity (Homo sapiens [31]) of 8.2%, a Vd/F [32] of 66.3 L and a half-life [33] of 7.9 h. For the same molecule, the IC50 [34] was 1.2 nM, the concentration at 24 h [35] was 540 ng/mL and the Cmax [36] was 1600 ng/mL. The AUC(0-inf) [37] was 68000 ng·h/mL, the CL/F [38] was 103 mL/min and the Tmax [39] was 7 h. The AUC(0-inf) [40] was 106000 ng·h/mL, the Vd/F [41] was 366 L and the Cmax [42] was 4600 ng/mL. It also gave an Activity (Homo sapiens [43]) of 2%, a CL/F [44] of 555 mL/min and a half-life [45] of 8.3 h. It also gave a Vd/F [46] of 301 L, an AUC(0-inf) [47] of 26500 ng·h/mL and a CL/F [48] of 480 mL/min. The concentration at 168 h [49] was 900 ng/mL, the concentration at 168 h [50] was 2100 ng/mL and the half-life [51] was 14.6 h.
